Experimental data from patent publication US8410175B2, “Anticancer effect enhancer” (Nippon Kayaku Kabushiki Kaisha, priority 2004, dated 2013).

Key:
[1] = system: Murine Lewis lung carcinoma (LLC) cells; assay: Murine lung cancer model, tumor volume growth; type: in vivo; parameters: dose or concentration left out as unconfirmed; conditions: LLC s.c. in C57BL6 mice; two weeks
Protocol: Tumor volume was calculated as 0.5×{tumor length (mm)}[…]{tumor width (mm)}^2. The […] was calculated by student t-test.
(§1) Murine Lewis lung carcinoma (LLC) cells, lung adenocarcinoma cells, were obtained from the Tohoku University Cell Resource Center for Biomedical Research and were incubated with DMEM plus 10% fetal bovine serum until cell proliferation was sufficient to perform the experiments. The LLC cells were adjusted to concentrations of 2×10^5 cells/100 μl with phosphate buffer saline (PBS), and were inoculated Six-week-old male C57BL6 mice purchased from Charles River Japan, Inc. (Tokyo, Japan) and Clea Japan, Inc. (Tokyo, Japan) subcutaneously (2×10^5 cells/100 μl/mouse) at the right hypochondrium. Mice were maintained under specific-pathogen-free conditions, and provided with sterile food and water. When transplanted tumors grew to approximately 100 mm^3 in tumor volume, animals were equally divided into four groups (Control group, n=6; C, NO donor group, n=6; N, Chemotherapy group, n=6; CTX, and NO plus chemotherapy group, n=6; N+CTX). Tumor volume was calculated as 0.5×{tumor length (mm)}×{tumor width (mm)}^2. […]

[2] = system: Colon 26 cells, murine colon cancer cells; assay: Murine colon cancer model, tumor volume growth; type: in vivo; parameters: dose or concentration left out as unconfirmed; conditions: colon 26 s.c. in BALB/c mice; two weeks
Protocol: Tumor volume was calculated as 0.5×{tumor length (mm)}×{tumor width (mm)}^2. The P value was calculated by student t-test.
as §1, with “Colon 26” for “Murine Lewis lung carcinoma (LLC)”, “murine colon cancer” for “lung adenocarcinoma”, “RPMI 1640” for “DMEM”, “colon 26” for “LLC”, “female BALB/c” for “male C57BL6”, “subcutanously” for “subcutaneously”

With `O=[N+]([O-])OCC(CO[N+](=O)[O-])O[N+](=O)[O-]` [NO donor, nitroglycerin] the murine tumor volume [1] was “rapid tumor growth” and the murine tumor volume [2] was “rapid tumor growth”.
